From US20110250184A1, “METHODS FOR DETERMINING EFFICACY OF A THERAPEUTIC REGIMEN AGAINST DELETERIOUS EFFECTS OF CYTOTOXIC AGENTS IN HUMAN” (priority 2008, published 2011)

Test system: human bone marrow cells
Experiment: In vitro radiation protection of human bone marrow cells (methocult CFU)
Assay type: cell-based
Method: FIG. 3. In vitro radiation protection of human bone marrow cells. Human bone marrow cells were treated with increasing concentrations of ON 01210.Na for 3 hours, and then irradiated with increasing doses of ionizing radiation. The cells were plated into methocult and the total number of CFUs was determined 14 days later.
Radiation protection assays were then performed (FIG. 3). Cells were treated with ON 01210.Na for 3 hours, irradiated, and plated in methocult. The total number of colony forming units was determined 14 days later. […] This compared very favorably when analyzed against protection studies using amifostine as a positive control.
Human bone marrow cells were treated with increasing concentrations of ON 01210.Na for 3 hours, and then irradiated with increasing doses of ionizing radiation. The cells were plated into methocult and the total number of CFUs was determined 14 days later.
When we plotted the survival curve at the optimal concentration of ON 01210.Na (FIG. 3C) we were able to calculate a dose reduction factor (DRF) of 1.6. We also tested the radiation protection activity of amifostine. Amifostine concentrations were selected that closely mimicked the therapeutic plasma concentrations. […] The calculated DRF value of 1.5 was determined from these experiments.

## NCCCNCCSP(=O)(O)O [amifostine, reference compound]
amifostine
  optimal concentration for radiation protection: 0.25 mM
Amifostine 0.25 mM (optimal)
  dose reduction factor (DRF): 1.5
Data not shown
  range of concentrations that protected cells: narrow range of concentrations
